Test results published in patent US20240132485A1, “HETEROCYCLIC CULLIN RING UBIQUITIN LIGASE COMPOUNDS AND USES THEREOF” (CEMM - FORSCHUNGSZENTRUM FÜR MOLEKULARE MEDIZIN GMBH, priority 2020, published 2024).

Assays:
[1] = biological target: T1, DDB1-CDK12/Cyclin K ternary complex (Homo sapiens, UniProt Q16531+Q9NYV4); experiment: NanoBRET EC50 assay (HaloTag_CDK12 / NanoLuc_DDB1 in HEK293T); format: cell-based; conditions: for EC50 / NanoBRET EC50 Activity Class: 10-point titration from 20 μM, HEK293T; for EC50: read-out: NanoBRET EC50 Activity Class
T1 construct: expressed in transfected cells; host or cells: HEK293T wildtype cells, transient PEI transfection
T1 sequence (Q9NYV4 whole entry): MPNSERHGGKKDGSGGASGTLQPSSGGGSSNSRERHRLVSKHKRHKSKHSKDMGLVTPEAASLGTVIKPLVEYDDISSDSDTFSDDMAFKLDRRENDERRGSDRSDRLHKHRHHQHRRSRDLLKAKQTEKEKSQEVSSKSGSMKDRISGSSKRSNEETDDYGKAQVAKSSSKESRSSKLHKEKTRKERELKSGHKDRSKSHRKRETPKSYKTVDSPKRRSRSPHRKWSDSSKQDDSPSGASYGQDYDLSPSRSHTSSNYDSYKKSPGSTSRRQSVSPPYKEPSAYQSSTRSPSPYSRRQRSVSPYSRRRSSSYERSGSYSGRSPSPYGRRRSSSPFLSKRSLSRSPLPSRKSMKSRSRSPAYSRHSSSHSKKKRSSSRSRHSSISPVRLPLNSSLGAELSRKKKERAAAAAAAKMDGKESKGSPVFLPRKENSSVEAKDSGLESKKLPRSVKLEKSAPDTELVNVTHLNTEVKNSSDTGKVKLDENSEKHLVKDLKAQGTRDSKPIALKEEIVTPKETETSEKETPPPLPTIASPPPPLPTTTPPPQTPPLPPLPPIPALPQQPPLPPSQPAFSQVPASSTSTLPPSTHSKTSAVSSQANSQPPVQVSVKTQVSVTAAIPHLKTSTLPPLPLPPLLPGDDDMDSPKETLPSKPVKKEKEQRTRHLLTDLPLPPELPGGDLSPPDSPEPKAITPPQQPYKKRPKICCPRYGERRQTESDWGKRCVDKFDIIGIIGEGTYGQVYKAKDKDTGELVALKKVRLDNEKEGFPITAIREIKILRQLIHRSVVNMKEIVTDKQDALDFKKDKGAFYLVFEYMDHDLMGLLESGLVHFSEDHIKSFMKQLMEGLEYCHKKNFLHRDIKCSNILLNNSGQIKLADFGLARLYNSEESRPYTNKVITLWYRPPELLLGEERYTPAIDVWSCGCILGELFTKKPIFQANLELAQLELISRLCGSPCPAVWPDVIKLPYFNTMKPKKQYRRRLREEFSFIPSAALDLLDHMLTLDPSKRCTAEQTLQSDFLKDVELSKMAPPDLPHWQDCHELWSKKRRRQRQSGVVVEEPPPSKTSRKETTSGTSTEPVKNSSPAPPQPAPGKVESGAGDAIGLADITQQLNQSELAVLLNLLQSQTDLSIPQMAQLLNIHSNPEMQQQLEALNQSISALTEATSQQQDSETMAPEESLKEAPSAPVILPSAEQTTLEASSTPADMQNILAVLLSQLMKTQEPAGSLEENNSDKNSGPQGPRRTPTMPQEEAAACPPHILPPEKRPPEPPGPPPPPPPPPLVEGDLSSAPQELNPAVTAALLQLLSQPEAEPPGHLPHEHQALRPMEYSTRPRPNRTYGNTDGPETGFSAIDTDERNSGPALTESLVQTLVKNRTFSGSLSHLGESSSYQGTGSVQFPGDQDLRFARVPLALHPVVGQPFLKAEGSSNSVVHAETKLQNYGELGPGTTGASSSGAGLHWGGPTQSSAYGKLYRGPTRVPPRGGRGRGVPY
T1 sequence (Q16531 whole entry): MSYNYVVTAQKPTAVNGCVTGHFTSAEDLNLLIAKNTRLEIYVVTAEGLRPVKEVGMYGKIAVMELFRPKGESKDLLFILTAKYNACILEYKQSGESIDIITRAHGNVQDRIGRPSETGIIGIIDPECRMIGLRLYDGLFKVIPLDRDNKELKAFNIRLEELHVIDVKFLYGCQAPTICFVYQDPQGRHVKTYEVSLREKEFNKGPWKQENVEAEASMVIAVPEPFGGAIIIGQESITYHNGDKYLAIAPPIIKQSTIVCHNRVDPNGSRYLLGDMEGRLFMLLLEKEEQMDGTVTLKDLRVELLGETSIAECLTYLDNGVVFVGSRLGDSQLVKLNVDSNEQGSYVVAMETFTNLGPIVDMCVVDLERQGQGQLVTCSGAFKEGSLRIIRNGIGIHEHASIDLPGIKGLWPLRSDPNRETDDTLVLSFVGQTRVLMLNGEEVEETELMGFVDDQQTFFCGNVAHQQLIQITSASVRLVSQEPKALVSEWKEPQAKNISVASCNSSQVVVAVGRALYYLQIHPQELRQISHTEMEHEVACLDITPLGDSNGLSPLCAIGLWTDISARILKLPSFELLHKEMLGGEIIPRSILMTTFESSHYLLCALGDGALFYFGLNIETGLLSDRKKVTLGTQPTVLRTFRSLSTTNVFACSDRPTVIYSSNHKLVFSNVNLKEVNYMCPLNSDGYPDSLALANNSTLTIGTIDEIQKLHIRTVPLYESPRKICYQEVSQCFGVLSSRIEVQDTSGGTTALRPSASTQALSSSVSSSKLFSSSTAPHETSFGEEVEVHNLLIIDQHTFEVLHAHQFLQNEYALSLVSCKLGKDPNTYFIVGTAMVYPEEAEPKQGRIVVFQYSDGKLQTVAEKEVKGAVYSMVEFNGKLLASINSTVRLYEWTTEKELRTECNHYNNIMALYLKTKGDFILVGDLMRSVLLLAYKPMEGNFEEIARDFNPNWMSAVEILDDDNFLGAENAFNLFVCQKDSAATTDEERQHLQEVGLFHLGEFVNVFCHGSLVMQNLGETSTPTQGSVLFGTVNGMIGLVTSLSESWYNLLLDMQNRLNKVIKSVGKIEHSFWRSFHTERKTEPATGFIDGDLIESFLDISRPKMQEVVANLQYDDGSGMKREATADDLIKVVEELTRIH
T1 sequence (O75909 whole entry partner): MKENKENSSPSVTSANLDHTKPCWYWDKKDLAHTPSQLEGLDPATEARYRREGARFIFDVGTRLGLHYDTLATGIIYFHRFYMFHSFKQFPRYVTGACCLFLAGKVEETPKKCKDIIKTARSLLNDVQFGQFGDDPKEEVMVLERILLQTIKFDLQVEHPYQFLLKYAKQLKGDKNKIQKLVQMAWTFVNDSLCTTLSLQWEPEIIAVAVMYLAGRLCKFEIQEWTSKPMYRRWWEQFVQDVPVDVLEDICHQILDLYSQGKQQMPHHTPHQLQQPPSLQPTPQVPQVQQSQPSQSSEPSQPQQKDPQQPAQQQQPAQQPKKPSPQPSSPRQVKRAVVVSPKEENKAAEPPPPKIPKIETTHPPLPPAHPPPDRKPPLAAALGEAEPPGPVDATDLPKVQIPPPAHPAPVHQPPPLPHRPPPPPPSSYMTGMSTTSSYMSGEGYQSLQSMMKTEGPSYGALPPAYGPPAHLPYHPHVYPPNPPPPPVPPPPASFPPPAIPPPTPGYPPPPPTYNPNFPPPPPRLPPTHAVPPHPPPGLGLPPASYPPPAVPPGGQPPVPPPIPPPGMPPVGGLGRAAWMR
Procedure: (§1) This assay measures the interaction/recruitment of CDK12/Cyclin K to DDB1, mechanistically validating the molecular glue pharmacology.
(§2) HEK293T wildtype cells are seeded 800 k cells/well (DMEM+10% FBS+1% PS) in a 6-well plate and allowed to attach for ˜7 hours followed by a transient transfection of 1.5 μg HaloTag_CDK12 Plasmid [Table 1] and 0.15 μg NanoLuc_DDB1 plasmid [Table 1] per well using PEI. Cells are incubated at 37° C., 5% CO2, harvested after 24 hours and resuspended in assay media (Opti-MEM Reduced serum media, no phenol red, 4% FBS, 1% PS). Cells are adjusted to 2.3×10^5 cells/ml and treated with HaloTag 618 Ligand at 100 nM or DMSO. 8000 cells are seeded per well in triplicates per compound in a white-walled 384-well plate, one negative control treated with DMSO instead of HaloTag 618 Ligand is seeded in triplicates and the 384-well plate is incubated at 37° C., 5% CO2 overnight. Compound stock solutions are prepared in Opti-MEM−/− (Opti-MEM I Reduced serum media, no phenol red) at 8× and used to treat the cells at a final concentration of 1× at 10 μM. Cells and compounds are incubated for 10 minutes at room temperature followed by addition of NanoBRET Nano-Glo substrate following manufacturer's protocols. The plate is shaken for 30 sec followed by immediate measurement of donor emission (NanoBRET Blue at 460 nm) and acceptor emission (BRET Deep Red at 647 nm) for 0.5 s.
The assay setup is identical to “NanoBRET fold change experimental setup”. Instead of treating cells in […] with 10 μM compound, a 10-point titration starting at 20 μM is performed with a dilution factor of 1:4, covering α range of 20000 nM-0.076 nM.

[2] = tested on: KBM7 cells harboring a hypomorphic UBE2M mutation; experiment: KBM7 CTG EC50 assay (UBE2M knock-out); format: cell-based; conditions: Homo sapiens, KBM-7; 72 h incubation, CellTiter-Glo; read-out: KBM7 CTG EC50 (UBE2M knock-out) Activity Class
Source text: (§3) This is a cell viability assay to measure the desired therapeutic effect, i.e. killing of cancer cells. The UBE2M mutant cell line has impaired activity of the Cullin-RING ligase system due to a hypomorphic mutation in UBE2M, which is required for activation of these E3 ligases. By comparison with WT cells, it is possible to estimate the contribution of Cyclin K degradation (which is reduced in UBE2M mut cells) compared to kinase inhibition of CDK12 (which is unaffected in UBE2M mut cells). Since the UBE2M mutation only reduces CRL function without fully abrogating it, this assay may slightly underestimate the effect of degradation because, at high compound concentrations, degradation may still be observed.
(§4) KBM7 cells (wild-type or harboring α hypomorphic UBE2M mutation (Mayor-Ruiz et al., 2019)) were seeded in a white opaque 384-well plate at a density of 1000 cells per well in duplicate, in full medium (IMDM+10% FBS+1% penicillin-streptomycin). Cells were treated with compounds in a 10-point titration with a dilution factor of 1:4 (range: 0 to 20 μM). After 72 h of incubation, the cell viability was determined using the CellTiter-Glo® 2.0 reactant (Promega), pre-diluted 1:4 in mQ water. The luminescence signal was measured using the multimode plate reader EnVision 2105 (Perkin Elmer).

CCNK = experiment: NanoLuc-CCNK degradation assay (HEK293T_Nluc_CCNK-tagged cells); format: cell-based; conditions: for DC50 / NanoLuc-CCNK degradation DC50 Activity Class: 4 h incubation, HEK293T_Nluc_CCNK-tagged cells; for DC50: read-out: NanoLuc-CCNK degradation DC50 Activity Class
Procedure: The assay helps to elucidate the mechanistic explanation of the cell killing effect of the compounds of the present invention. Cyclin K is fused to a nanoluciferase, light emission is measured as a proxy of Cyclin K abundance. Potency of Cyclin K degradation and cytotoxicity of KBM7 correlate extremely well, further supporting Cyclin K degradation being the main driver of the cell killing, as opposed to inhibition of CDK12 catalytic activity.
HEK293T_Nluc_CCNK-tagged cells were engineered by integrating a nanoluciferase tag at the N-terminus of the endogenous locus of CCNK using CRISPR-Cas9 technology. Briefly, 5.5 million HEK293T cells were co-transfected by PEI with a 1:1 ratio of cutting vector (sgRNA: […]) and repair template (4 μg total plasmid) as previously described (Brand and Winter, 2019). The repair sequence comprises a cassette of puromycinR-P2A-HA-Nluc-(G4S)3 (P2A: self-cleaving peptide 2A, HA: HA-tag, (G4S)3: flexible linker), surrounded by 20-nucleotide microhomologies matching the genomic locus. After 3 days of incubation, the recombinant population was selected by puromycin treatment (2 μg/ml, 5-day treatment). A monoclonal population was obtained by limiting dilution and cassette integration validated by Sanger sequencing.
HEK293T_Nluc_CCNK-tagged cells were seeded in a white opaque 384-well plate at a density of 8000 cells per well in duplicate, in full medium (Opti-MEM I+4% FBS+1% PS). Cells were treated with compounds in a 10-point titration (range: 0 to 10 μM, 1:4 dilution). After 4 h of incubation, Nano-Glo substrate (Promega), pre-diluted in serum-free medium (Opti-MEM I), was added to the cells (1:500 final dilution). The luminescence signal was directly measured using the multimode plate reader EnVision 2105 (Perkin Elmer).

KBM7 cells (wild-type) = experiment: KBM7 CTG EC50 assay (UBE2M wild-type); format: cell-based, human; conditions: for EC50: Homo sapiens, KBM-7, 72 h incubation, CellTiter-Glo, read-out: KBM7 CTG EC50 (UBE2M wild-type) Activity Class; for Ratio UBE2M WT to KO: ratio of anti-proliferative activity in KBM7 wild-type versus UBE2M knock-out cells (fold)
Source text: as §3, §4

[3] = biological target: T1, DDB1-CDK12/Cyclin K ternary complex; experiment: NanoBRET fold-change assay (HaloTag_CDK12 / NanoLuc_DDB1 in HEK293T); format: cell-based; conditions: 10 μM compound, 10 minutes
Procedure: as §1, §2

| EC50 [1] [nM] | DC50 (CCNK) [nM] | NanoBRET fold-change Activity Class [3] | NanoBRET EC50 Activity Class [1] | NanoLuc-CCNK degradation DC50 Activity Class (CCNK) | activity in NanoBRET assay (ternary complex formation), in words [1] | SMILES | EC50 [2] [nM] | EC50 (KBM7 cells (wild-type)) [nM] | Ratio UBE2M WT to KO (KBM7 cells (wild-type)) | activity in NanoLuc CCNK degradation assay, in words (CCNK) | dependence of cytotoxicity on UBE2M, in words (KBM7 cells (wild-type); KBM7 wild-type versus UBE2M mutant) |
| --- | --- | --- | --- | --- | --- | --- | --- | --- | --- | --- | --- |
| ≤ 250 | ≤ 100 | A (greater than 4-fold increase) | – | – | – | O=C(Cc1cn2cc(F)ccc2n1)Nc1ccc(C2CC2)cn1 [Example 3-62, N-(5-cyclopropylpyridin-2-yl)-2-(6-fluoroimidazo[1,2-a]pyridin-2-yl)acetamide] | 250 to 500 | ≤ 250 | 50.8 | – | – |
| – | > 10000 | B (3-4 fold increase) | C (1.0 μM≤EC50<0.50 μM) | – | – | O=C(Cc1c[nH]c2ncccc12)Nc1ncc(C(F)(F)F)s1 [Example 3-38, 2-(1H-pyrrolo[2,3-b]pyridin-3-yl)-N-(5-(trifluoromethyl)thiazol-2-yl)acetamide] | > 10000 | 500 to 1000 | >10 | – | – |
| ≤ 250 | ≤ 100 | A (greater than 4-fold increase) | – | – | – | CC(C(=O)Nc1ncc(C(F)(F)F)s1)c1cnc2ccccc2c1 (stereo not drawn) [Example 3-35, 2-(quinolin-3-yl)-N-(5-(trifluoromethyl)thiazol-2-yl)propanamide] | ≤ 250 | ≤ 250 | 15.1 | – | – |
| – | – | B (3-4 fold increase) | C (1.0 μM≤EC50<0.50 μM) | D (10 μM≤DC50<1.0 μM) | – | Cc1ccc2c(CC(=O)Nc3ccc(C(C)C)cn3)coc2c1C [Example 3-51, 2-(6,7-dimethylbenzofuran-3-yl)-N-(5-isopropylpyridin-2-yl)acetamide] | > 10000 | 1000 to 10000 | >8 | – | – |
| ≤ 250 | ≤ 100 | A (greater than 4-fold increase) | – | – | particularly exceptional | O=C(Cc1cn2cc(Cl)ccc2n1)Nc1cc(C2CC2)[nH]n1 [Example 3-66, N-(5-cyclopropyl-1H-pyrazol-3-yl)-2-(6-chloroimidazo[1,2-a]pyridin-2-yl)acetamide] | ≤ 250 | ≤ 250 | 388.0 | particularly exceptional | very strong dependence |
| > 10000 | ≤ 100 | A (greater than 4-fold increase) | – | – | – | COc1cc2ncn(CCC(=O)Nc3ncc(C(F)(F)F)s3)c(=O)c2cc1OC [Example 3-64, 3-(6,7-dimethoxy-4-oxoquinazolin-3(4H)-yl)-N-(5-(trifluoromethyl)thiazol-2-yl)propanamide] | 500 to 1000 | ≤ 250 | 21.9 | – | – |
| > 10000 | – | B (3-4 fold increase) | – | B (0.50 μM≤DC50<0.10 μM) | – | O=C(CCn1cnc2ccccc2c1=O)Nc1ncc(C(F)(F)F)s1 [Example 3-63, 3-(4-oxoquinazolin-3(4H)-yl)-N-(5-(trifluoromethyl)thiazol-2-yl)propanamide] | 1000 to 10000 | ≤ 250 | 13.9 | – | – |
| – | ≤ 100 | A (greater than 4-fold increase) | B (0.50 μM≤EC50≤0.25 μM) | – | – | Cc1ccc2c(CC(=O)Nc3cc(Br)[nH]n3)coc2c1C [Example 3-47, N-(5-bromo-1H-pyrazol-3-yl)-2-(6,7-dimethylbenzofuran-3-yl)acetamide] | 500 to 1000 | ≤ 250 | 15.7 | – | – |
| – | – | B (3-4 fold increase) | – | C (1.0 μM≤DC50<0.50 μM) | – | O=C(Nc1ncc(C(F)(F)F)s1)C1CC(=O)N(Cc2ccc(Cl)cc2)C1 (stereo not drawn) [Example 3-28, 1-(4-chlorobenzyl)-5-oxo-N-(5-(trifluoromethyl)thiazol-2-yl)pyrrolidine-3-carboxamide] | 1000 to 10000 | ≤ 250 | 42.7 | – | – |
| – | > 10000 | C (2-3 fold increase) | – | – | – | Cc1cc(NC(=O)Cc2cn3cc(F)ccc3n2)n[nH]1 [Example 3-56, 2-(6-fluoroimidazo[1,2-a]pyridin-2-yl)-N-(5-methyl-1H-pyrazol-3-yl)acetamide] | > 10000 | 250 to 500 | >10 | – | – |
| – | – | – | B (0.50 μM≤EC50≤0.25 μM) | D (10 μM≤DC50<1.0 μM) | – | O=C(Cc1c[nH]c2cccnc12)Nc1ncc(C(F)(F)F)s1 [Example 3-40, 2-(1H-pyrrolo[3,2-b]pyridin-3-yl)-N-(5-(trifluoromethyl)thiazol-2-yl)acetamide] | > 10000 | ≤ 250 | >200 | – | – |
| – | – | B (3-4 fold increase) | – | B (0.50 μM≤DC50<0.10 μM) | – | O=C(CCn1cnc2ccc(Br)cc2c1=O)Nc1ncc(C(F)(F)F)s1 [Example 3-65, 3-(6-bromo-4-oxoquinazolin-3(4H)-yl)-N-(5-(trifluoromethyl)thiazol-2-yl)propanamide] | > 10000 | 500 to 1000 | >13 | – | – |
| – | – | C (2-3 fold increase) | – | D (10 μM≤DC50<1.0 μM) | – | O=C(Cc1cc2ccccc2o1)Nc1ncc(C(F)(F)F)s1 [Example 3-41, 2-(benzofuran-2-yl)-N-(5-(trifluoromethyl)thiazol-2-yl)acetamide] | > 10000 | 1000 to 10000 | >2 | – | – |
| – | > 10000 | D (1-2 fold increase) | – | – | – | Cc1ccc2ncn(CC(=O)Nc3ncc(C(F)(F)F)s3)c2c1 [Example 3-15, 2-(6-methyl-1H-benzo[d]imidazol-1-yl)-N-(5-(trifluoromethyl)thiazol-2-yl)acetamide] | > 10000 | 1000 to 10000 | >4 | – | – |
